Here are results for 27 molecules from patent publication US11001564B2, “Substituted chromane-8-carboxamide compounds and analogues thereof, and methods using same” (priority 2016, dated 2021).

SMILES strings stand for the structures. Structures can show the parent of a compound that is named as a salt.

The first assay concerns HBV rcDNA in HepDE19 cells. Kind of assay: HepDE19 assay with bDNA quantitation of HBV rcDNA. In kind it is cell-based, hepatitis B virus (HBV). As to conditions: HepDE19 cells, 7 day incubation, rcDNA by Quantigene 2.0 bDNA assay; read-out: DE-19 bDNA EC50. An outline of the steps: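 HepG2-derived HepDE19 cells, switched to Tet-free medium, were exposed 7 days at 37 °C to compound (8-point ½-log series from 25 μM, 0.5% DMSO). HBV rcDNA measured by bDNA assay with HBV-specific probes; EC50/EC90 by 4-parameter fit. CC50 from CellTiter-Glo ATP on replicate plates after 4 days.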
Consider `O=C(Nc1ccc(F)c(F)c1)c1cccc2c1OCCC2c1ccncc1` (single isomer, unassigned) [Compound 70, N-(3,4-Difluorophenyl)-4-(pyridin-4-yl)chromane-8-carboxamide], for which the EC50 came out at 23 µM. For the molecule `COC1CCOc2c(C(=O)Nc3ccc(F)c(F)c3)cccc21` (single isomer, unassigned) [Compound 7, N-(3,4-difluorophenyl)-4-methoxychromane-8-carboxamide], the concentration for a half-maximal effect (EC50) turned out to be 1.8 µM. For `COC1CCOc2c(C(=O)Nc3ccc(F)c(F)c3)cccc21` (single isomer, unassigned) [Compound 6, N-(3,4-difluorophenyl)-4-methoxychromane-8-carboxamide], the EC50 was 4.3 µM. `O=C(N[C@H]1CCOc2c(C(=O)Nc3ccc(F)c(F)c3)cccc21)OCC1CCCNC1` (single isomer, unassigned) [Compound 94]: the EC50 was 22 µM.

The same assay, now with this note: Hepatitis B virus, HepDE19, 168 h, HepDE19 cells, 7 day incubation, rcDNA by Quantigene 2.0 bDNA assay; read-out: DE-19 bDNA EC50.
With `CNC(=O)CC1CCOc2c(C(=O)Nc3ccc(F)c(F)c3)cccc21` (single isomer, unassigned) [Compound 131, N-(3,4-difluorophenyl)-4-(2-(methylamino)-2-oxoethyl) chromane-8-carboxamide], the 50% effective concentration (EC50) was determined as 20 µM. As to `O=C1CC[C@H](COC(=O)N[C@H]2CCOc3c(C(=O)Nc4ccc(F)c(F)c4)cccc32)N1` [Compound 119, ((R)-5-Oxopyrrolidin-2-yl)methyl ((S)-8-((3,4-difluorophenyl)carbamoyl)chroman-4-yl)carbamate], the 50% effective concentration (EC50) turned out to be 8.7 µM. On to `Cc1cc(NC(=O)c2ccc(F)c3c2OCC[C@@H]3NC(=O)OC[C@@H]2CC(=O)N2)ccc1F` [Compound 147, ((S)-4-Oxoazetidin-2-yl)methyl ((S)-5-fluoro-8-((4-fluoro-3-methylphenyl)carbamoyl)chroman-4-yl)carbamate], for which the EC50 came to 0.84 µM. Regarding `O=C(N[C@H]1CCOc2c(C(=O)Nc3ccc(F)c(F)c3)c(F)cc(F)c21)OCc1ccccn1` [Compound 124, pyridin-2-ylmethyl (S)-(8-((3,4-difluorophenyl)carbamoyl)-5,7-difluorochroman-4-yl)carbamate], the 50% effective concentration (EC50) was 25 µM. Turning to `CC(C)(C)OC(=O)N[C@H]1CCOc2c(C(=O)Nc3ccc(F)c(Cl)c3)ccc(F)c21` [Compound 158, tert-Butyl (S)-(8-((3-chloro-4-fluorophenyl)carbamoyl)-5-fluorochroman-4-yl)carbamate], the half-maximal effective concentration (EC50) was determined as 5.8 µM. Consider `COC(=O)N[C@H]1CCOc2c(C(=O)Nc3ccccc3)cccc21` [Compound 35, Methyl (S)-(8-(phenylcarbamoyl)chroman-4-yl)carbamate], for which the EC50 is 7.5 µM. As for `CN1CCCC(COC(=O)N[C@H]2CCOc3c(C(=O)Nc4ccc(F)c(F)c4)cccc32)C1` (single isomer, unassigned) [Compound 98], the EC50 turned out to be 23 µM.

As to `Cc1ccnc(N[C@H]2CCOc3c(C(=O)Nc4ccc(F)c(F)c4)cccc32)n1` [Compound 57, (S)—N-(3,4-Difluorophenyl)-4-((4-methylpyrimidin-2-yl)amino)chromane-8-carboxamide], the EC50 was determined as 3.4 µM.

Turning to `CC(C)NS(=O)(=O)N[C@H]1CCOc2c(C(=O)Nc3ccc(F)c(F)c3)cccc21` (stereo in doubt) [Compound 15], the concentration giving a half-maximal response (EC50) was 9.7 µM.

As to `COC(=O)NC1CCNc2c(C(=O)Nc3ccc(F)c(Cl)c3)cccc21` (stereo not drawn) [Compound 176, methyl (8-((3-chloro-4-fluorophenyl)carbamoyl)-1,2,3,4-tetrahydroquinolin-4-yl)carbamate], the EC50 was 23 µM. As to `Cc1cc(NC(=O)c2ccc(F)c3c2OCC[C@@H]3NC(=O)OC[C@H]2CCC(=O)N2)ccc1F` [Compound 136, ((R)-5-Oxopyrrolidin-2-yl)methyl ((S)-5-fluoro-8-((4-fluoro-3-methylphenyl)carbamoyl)chroman-4-yl)carbamate], the 50% effective concentration (EC50) was determined as 1.2 µM. `Cc1cc(NC(=O)c2ccc(F)c3c2OCC[C@@H]3NC(=O)OCc2cnccn2)ccc1F` [Compound 114, Pyrazin-2-ylmethyl (S)-(5-fluoro-8-((4-fluoro-3-methylphenyl)carbamoyl)chroman-4-yl)carbamate]: the EC50 was 0.5 µM. Take `CN(C)C(=O)CC1CCOc2c(C(=O)Nc3ccc(F)c(F)c3)cccc21` (stereo not drawn) [Compound 133, N-(3,4-difluorophenyl)-4-(2-(dimethylamino)-2-oxoethyl) chromane-8-carboxamide]: the EC50 stood at 14 µM.

Still in this assay, the particulars now being: Hepatitis B virus, HepDE19, 168 h, read-out: DE-19 bDNA EC50, HepDE19 cells, 7 day incubation, rcDNA by Quantigene 2.0 bDNA assay.
`C[C@H](OC(=O)N[C@H]1CCOc2c(C(=O)Nc3ccc(F)c(F)c3)cccc21)c1ccccn1` [Compound 61, (S)-1-(Pyridin-2-yl)ethyl ((S)-8-((3,4-difluorophenyl)carbamoyl)chroman-4-yl)carbamate hydrochloride]: the concentration giving a half-maximal response (EC50) was determined as 4 µM.

In the case of `CNC(=O)N[C@H]1CCOc2c(C(=O)Nc3ccc(F)c(F)c3)ccc(Cl)c21` [Compound 126, (S)-5-chloro-N-(3,4-difluorophenyl)-4-(3-methylureido)chromane-8-carboxamide], the EC50 came to 0.74 µM.

As for `COC(=O)N[C@H]1CCOc2c1ccc(F)c2C(=O)Nc1ccc(F)c(F)c1` [Compound 47, Methyl (8-((3,4-difluorophenyl)carbamoyl)-7-fluorochroman-4-yl)carbamate], the concentration giving a half-maximal response (EC50) is 3.6 µM. Take `O=C(N[C@H]1CCOc2c(C(=O)Nc3ccc(F)c(F)c3)cccc21)OCc1ccc(Cl)cn1` [Compound 88, (5-Chloropyridin-2-yl)methyl (S)-(8-((3,4-difluorophenyl)carbamoyl)chroman-4-yl)carbamate hydrochloride]: the concentration giving a half-maximal response (EC50) came to 13 µM. On to `COc1ccc(COC(=O)N[C@H]2CCOc3c(C(=O)Nc4ccc(F)c(F)c4)cccc32)nc1` [Compound 102, (5-Methoxypyridin-2-yl)methyl (S)-(8-((3,4-difluorophenyl)carbamoyl)chroman-4-yl)carbamate hydrochloride], for which the EC50 was found to be 2.5 µM. In the case of `COC(=O)NC1CCN(C)c2c(C(=O)Nc3ccc(F)c(F)c3)cccc21` (single isomer, unassigned) [Compound 177, Methyl (8-((3,4-difluorophenyl)carbamoyl)-1-methyl-1,2,3,4-tetrahydroquinolin-4-yl)carbamate], the 50% effective concentration (EC50) is 2.3 µM. For `CNC(=O)N[C@H]1CCOc2c(C(=O)Nc3ccc(F)c(Cl)c3)ccc(F)c21` [Compound 104, (S)—N-(3-Chloro-4-fluorophenyl)-5-fluoro-4-(3-methylureido)chromane-8-carboxamide], the EC50 was found to be 0.4 µM.

The same assay, now with this note: read-out: DE-19 bDNA EC50; HepDE19 cells, 7 day incubation, rcDNA by Quantigene 2.0 bDNA assay.
In the case of `O=C(N[C@H]1CCOc2c(C(=O)Nc3ccc(F)c(F)c3)cccc21)OC1CCOC1` (single isomer, unassigned) [Compound 25, Tetrahydrofuran-3-yl-(8-((3,4-difluorophenyl)carbamoyl)chroman-4-yl)carbamate], the half-maximal effective concentration (EC50) came out at 23 µM. Take `O=C(N[C@H]1CCOc2c(C(=O)Nc3ccc(F)c(F)c3)cccc21)OC1CCOC1` (single isomer, unassigned) [Compound 26, Tetrahydrofuran-3-yl-(8-((3,4-difluorophenyl)carbamoyl)chroman-4-yl)carbamate]: the EC50 stood at 7.4 µM. With `COC(=O)NC1CCN(C)c2c(C(=O)Nc3ccc(F)c(Cl)c3)cccc21` (single isomer, unassigned) [Compound 178, Methyl (8-((3-chloro-4-fluorophenyl)carbamoyl)-1-methyl-1,2,3,4-tetrahydroquinolin-4-yl)carbamate], the 50% effective concentration (EC50) was determined as 13 µM.

As usually defined, the EC50 is the concentration needed to bring the measured effect to its halfway point.
